ChEMBL document CHEMBL2380212, “Synthesis, single crystal and antitumor activities of benzimidazole-quinazoline hybrids” (Bioorg Med Chem Lett, 2013)

Legend:
Type in all cases: functional
[1] = system: SF-539; experiment: Cytotoxicity against human SF539 cells at 10 uM after 48 hrs by SRB assay; conditions: SF-539, 48 h, read-out: GI
[2] = system: DU-145; experiment: Cytotoxicity against human DU145 cells at 10 uM after 48 hrs by SRB assay; conditions: DU-145, 48 h, read-out: GI
[3] = system: RXF 393; experiment: Cytotoxicity against human RXF393 cells at 10 uM after 48 hrs by SRB assay; conditions: RXF 393, 48 h, read-out: GI
[4] = system: Malme-3M; experiment: Cytotoxicity against human MALME-3M cells at 10 uM after 48 hrs by SRB assay; conditions: read-out: GI
[5] = system: MCF7; experiment: Cytotoxicity against human MCF7 cells at 10 uM after 48 hrs by SRB assay; conditions: MCF7, 48 h, read-out: GI
[6] = system: UACC-257; experiment: Cytotoxicity against human UACC257 cells at 10 uM after 48 hrs by SRB assay; conditions: UACC-257, 48 h, read-out: GI
[7] = system: K562; experiment: Cytotoxicity against human K562 cells at 10 uM after 48 hrs by SRB assay; conditions: K562, 48 h, read-out: GI
[8] = system: SF-268; experiment: Cytotoxicity against human SF268 cells at 10 uM after 48 hrs by SRB assay; conditions: SF-268, 48 h, read-out: GI
[9] = system: SK-MEL-2; experiment: Cytotoxicity against human SK-MEL-2 cells at 10 uM after 48 hrs by SRB assay; conditions: SK-MEL-2, 48 h, read-out: GI
[10] = system: OVCAR-3; experiment: Cytotoxicity against human OVCAR3 cells at 10 uM after 48 hrs by SRB assay; conditions: OVCAR-3, 48 h, read-out: GI
[11] = system: NCI-H322M; experiment: Cytotoxicity against human NCI-H322M cells at 10 uM after 48 hrs by SRB assay; conditions: read-out: GI
[12] = system: BT-549; experiment: Cytotoxicity against human BT549 cells at 10 uM after 48 hrs by SRB assay; conditions: BT-549, 48 h, read-out: GI
[13] = system: HCT-15; experiment: Cytotoxicity against human HCT15 cells at 10 uM after 48 hrs by SRB assay; conditions: HCT-15, 48 h, read-out: GI
[14] = system: CAKI-1; experiment: Cytotoxicity against human Caki1 cells at 10 uM after 48 hrs by SRB assay; conditions: CAKI-1, 48 h, read-out: GI
[15] = system: A549; experiment: Cytotoxicity against human A549 cells at 10 uM after 48 hrs by SRB assay; conditions: A549, 48 h, read-out: GI
[16] = system: NCI-H460; experiment: Cytotoxicity against human NCI-H460 cells at 10 uM after 48 hrs by SRB assay; conditions: NCI-H460, 48 h, read-out: GI
[17] = system: OVCAR-4; experiment: Cytotoxicity against human OVCAR4 cells at 10 uM after 48 hrs by SRB assay; conditions: OVCAR-4, 48 h, read-out: GI
[18] = system: Hs-578T; experiment: Cytotoxicity against human Hs578T cells at 10 uM after 48 hrs by SRB assay; conditions: read-out: GI
[19] = system: CCRF-CEM; experiment: Cytotoxicity against human CCRF-CEM cells at 10 uM after 48 hrs by SRB assay; conditions: read-out: GI

Compound | inhibition of growth at 10 µM [1] [%] | inhibition of growth at 10 µM [2] [%] | inhibition of growth at 10 µM [3] [%] | inhibition of growth at 10 µM [4] [%] | inhibition of growth at 10 µM [5] [%] | inhibition of growth at 10 µM [6] [%] | inhibition of growth at 10 µM [7] [%] | inhibition of growth at 10 µM [8] [%] | inhibition of growth at 10 µM [9] [%] | inhibition of growth at 10 µM [10] [%] | inhibition of growth at 10 µM [11] [%] | inhibition of growth at 10 µM [12] [%] | inhibition of growth at 10 µM [13] [%] | inhibition of growth at 10 µM [14] [%] | inhibition of growth at 10 µM [15] [%] | inhibition of growth at 10 µM [16] [%] | inhibition of growth at 10 µM [17] [%] | inhibition of growth at 10 µM [18] [%] | inhibition of growth at 10 µM [19] [%]
C=CCn1c(C)nc2ccc(Nc3nc(N4CCCC4)nc4ccccc34)cc21 | < 10 | 26.2 | 47.6 | < 10 | 38.1 | < 10 | 98 | 13.1 | < 10 | < 10 | < 10 | 13.1 | 20.6 | 15 | 25.4 | 18.7 | < 10 | 13.1 | –
C=CCn1c(C)nc2cc(Nc3nc(N4CCOCC4)nc4ccccc34)ccc21 | < 10 | < 10 | < 10 | – | < 10 | < 10 | < 10 | < 10 | < 10 | < 10 | < 10 | < 10 | < 10 | < 10 | < 10 | < 10 | < 10 | < 10 | –
C=CCn1c(C)nc2ccc(Nc3nc(N4CCN(C)CC4)nc4ccccc34)cc21 | 23.5 | < 10 | < 10 | < 10 | 14.4 | < 10 | 37.8 | < 10 | < 10 | < 10 | < 10 | 20.7 | 10.1 | 14.4 | < 10 | < 10 | 20.7 | 23.3 | 31.5
C=CCn1c(C)nc2ccc(Nc3nc(N4CCOCC4)nc4ccccc34)cc21 | < 10 | < 10 | < 10 | < 10 | < 10 | < 10 | 35.6 | < 10 | < 10 | < 10 | < 10 | < 10 | < 10 | 11.5 | 11.8 | < 10 | < 10 | < 10 | –
C=CCn1c(C)nc2cc(Nc3nc(Cl)nc4ccccc34)ccc21 | < 10 | < 10 | < 10 | – | < 10 | < 10 | 21.3 | < 10 | < 10 | < 10 | < 10 | < 10 | < 10 | 16.9 | < 10 | < 10 | < 10 | < 10 | –
C=CCn1c(C)nc2cc(Nc3nc(N4CCCC4)nc4ccccc34)ccc21 | < 10 | < 10 | < 10 | < 10 | < 10 | < 10 | 14.9 | < 10 | < 10 | < 10 | < 10 | < 10 | < 10 | 10.2 | 10.1 | < 10 | < 10 | < 10 | –
C=CCn1c(C)nc2ccc(Nc3nc(Cl)nc4ccccc34)cc21 | < 10 | < 10 | 12.5 | < 10 | < 10 | < 10 | 25.2 | 10.1 | < 10 | < 10 | < 10 | < 10 | < 10 | 12.8 | 18.5 | < 10 | < 10 | < 10 | –
